{"source": "patent US10208071B2", "about": "“Use of agonists of formyl peptide receptor 2 for treating ocular inflammatory diseases” (Allergan, Inc., priority 2013, dated 2019)", "target": "FPR2 (Homo sapiens (Human), UniProt P25090)", "sequence (P25090 whole entry)": "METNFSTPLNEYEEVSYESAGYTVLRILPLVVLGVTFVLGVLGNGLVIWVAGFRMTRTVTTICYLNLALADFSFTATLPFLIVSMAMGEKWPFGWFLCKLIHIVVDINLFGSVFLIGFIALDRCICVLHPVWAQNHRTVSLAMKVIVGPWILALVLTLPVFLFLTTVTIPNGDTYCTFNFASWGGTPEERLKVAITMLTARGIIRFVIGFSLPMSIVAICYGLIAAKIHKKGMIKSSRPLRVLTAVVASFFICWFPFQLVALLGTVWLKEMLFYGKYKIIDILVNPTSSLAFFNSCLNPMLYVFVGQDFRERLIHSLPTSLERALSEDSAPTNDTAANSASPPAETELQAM", "experiment": "FLIPR Ca+2 response, HEK-Gα16 cells stably expressing the human FPR2 receptor (Table 4)", "type": "cell-based", "details": "for FPR2 (efficacy): efficacy in parentheses", "outline": "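HEK-Gα16 cells stably expressing human FPR2, loaded with 2 μM Fluo-4 in HBSS/20 mM HEPES for 40 min at 37° C., then washed. Ligands added in HBSS/Hepes and Ca+2 responses recorded on FLIPR in relative fluorescence units.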"}
{"smiles": "CCC[C@H](NC(=O)[C@H](CC(C)C)NC(=O)Nc1ccc(Br)cc1)C(=O)O", "note": "[Compound 101, (2S)-2-{[(2S)-2-{[(4-bromophenyl)carbamoyl]amino}-4-methylpentanoyl]amino} pentanoic acid]", "values": [{"measurement": "FPR2 (efficacy)", "result": "nM (0.95)"}]}
{"smiles": "CCOP(=O)(O)CNC(=O)[C@H](Cc1ccccc1)NC(=O)Nc1ccc(Br)cc1", "note": "[Compound 126, ethyl hydrogen ({[(2S)-2-{[(4-bromophenyl)carbamoyl]amino}-3-phenylpropanoyl]amino}methyl)phosphonate]", "values": [{"measurement": "FPR2 (efficacy)", "result": "nM (1.0)"}]}
{"smiles": "CC(C)C[C@H](NC(=O)Nc1ccc(Br)cc1)C(=O)N[C@H](C(N)=O)C(C)C", "note": "[Compound 92, (2S)-N-[(2S)-1-amino-3-methyl-1-oxobutan-2-yl]-2-{[(4-bromophenyl)carbamoyl]amino}-4-methylpentanamide]", "values": [{"measurement": "EC50", "result": 5.8, "unit": "nM"}, {"measurement": "FPR2 (efficacy)", "result": "nM (1.0)"}]}
{"smiles": "C[S+]([O-])c1ccc(NC(=O)Nc2ccc3c(c2)C(=O)N(CCCN)[C@@H](c2ccc(C#N)cc2)C3)cc1", "note": "(stereo partly drawn) [Compound 41, (+) 1-[(3R)-2-(3-aminopropyl)-3-(4-cyanophenyl)-1-oxo-1,2,3,4-tetrahydroisoquinolin-7-yl]-3-[4-(methylsulfinyl)phenyl]urea]", "values": [{"measurement": "FPR2 (efficacy)", "result": "nM (0.94)"}]}
{"smiles": "CC1(C)C2CCC1C(C(=O)Nc1ccc(I)cc1)C2C(=O)O", "note": "(stereo not drawn) [Compound 22, 3-[(4-iodophenyl)carbamoyl]-7,7-dimethylbicyclo[2.2.1]heptane-2-carboxylic acid]", "values": [{"measurement": "FPR2 (efficacy)", "result": "nM (0.97)"}]}
{"smiles": "CCOP(=O)(O)CNC(=O)[C@H](CC(C)C)NC(=O)Nc1ccc(Br)cc1", "note": "[Compound 105, ethyl hydrogen ({[(2S)-2-{[(4-bromophenyl)carbamoyl]amino}-4-methylpentanoyl]amino}methyl)phosphonate]", "values": [{"measurement": "FPR2 (efficacy)", "result": "nM (0.88)"}]}
{"smiles": "CC(=O)c1ccc(NC(=O)Nc2ccc3c(c2)C(=O)N(CCc2c[nH]cn2)C(c2ccc(C#N)cc2)C3)cc1", "note": "(stereo not drawn) [Compound 13, 1-(4-acetylphenyl)-3-{3-(4-cyanophenyl)-2-[2-(1H-imidazol-4-yl)ethyl]-1-oxo-1,2,3,4-tetrahydroisoquinolin-7-yl}urea]", "values": [{"measurement": "FPR2 (efficacy)", "result": "nM (0.80)"}]}
{"smiles": "C[S+]([O-])c1ccc(NC(=O)Nc2ccc3c(c2)C(=O)N(CCc2c[nH]cn2)C(c2ccc(F)cn2)C3)cc1", "note": "(stereo not drawn) [Compound 24, 1-{3-(5-fluoropyridin-2-yl)-2-[2-(1H-imidazol-4-yl)ethyl]-1-oxo-1,2,3,4-tetrahydroisoquinolin-7-yl}-3-[4-(methylsulfinyl)phenyl]urea]", "values": [{"measurement": "FPR2 (efficacy)", "result": "nM (0.93)"}]}
{"smiles": "NC(=O)C1C(C(=O)Nc2ccc(I)cc2)C2C=CC1C21CC1", "note": "(stereo not drawn) [Compound 39, N-(4-iodophenyl) spiro[bicyclo[2.2.1]heptane-7,1′-cyclopropane]-5-ene-2,3-dicarboxamide]", "values": [{"measurement": "EC50", "result": 1.6, "unit": "nM"}, {"measurement": "FPR2 (efficacy)", "result": "nM (0.90)"}]}
{"smiles": "CC(C)C1(CC(=O)NCCO)NC(=O)N(NC(=O)Nc2ccc(Br)cc2F)C1=O", "note": "(stereo not drawn) [Compound 148, 2-[1-{[(4-bromo-2-fluorophenyl)carbamoyl]amino}-2,5-dioxo-4-(propan-2-yl)imidazolidin-4-yl]-N-(2-hydroxyethyl)acetamide]", "values": [{"measurement": "EC50", "result": 6.9, "unit": "nM"}, {"measurement": "FPR2 (efficacy)", "result": "nM (0.98)"}]}
{"smiles": "CSc1ccc(NC(=O)N[C@@H](CC(C)C)C(=O)NCC(=O)O)cc1", "note": "[Compound 130, {[(2S)-4-methyl-2-({[4-(methylsulfanyl)phenyl]carbamoyl}amino)pentanoyl]amino} acetic acid]", "values": [{"measurement": "EC50", "result": 3, "unit": "nM"}, {"measurement": "FPR2 (efficacy)", "result": "nM (1.0)"}]}
{"smiles": "O=C(O)C1C(C(=O)Nc2ccc(I)cc2)C2CCC1C21CC1", "note": "(stereo not drawn) [Compound 15, 3-[(4-iodophenyl)carbamoyl] spiro[bicyclo[2.2.1]heptane-7,1′-cyclopropane]-2-carboxylic acid]", "values": [{"measurement": "EC50", "result": 0.6, "unit": "nM"}, {"measurement": "FPR2 (efficacy)", "result": "nM (0.87)"}]}
{"smiles": "CC(C)C[C@H](NC(=O)Nc1ccc(C(F)(F)F)cc1)C(=O)NC(C)(C)C(=O)O", "note": "[Compound 139, 2-methyl-2-{[(2S)-4-methyl-2-({[4-(trifluoromethyl)phenyl]carbamoyl}amino)pentanoyl]amino} propanoic acid]", "values": [{"measurement": "EC50", "result": 2.5, "unit": "nM"}, {"measurement": "FPR2 (efficacy)", "result": "nM (0.92)"}]}
{"smiles": "CC(C)C[C@H](NC(=O)Nc1ccc(Br)cc1)C(=O)N[C@H](C(=O)O)c1ccccc1", "note": "[Compound 103, (2S)-{[(2S)-2-{[(4-bromophenyl)carbamoyl]amino}-4-methylpentanoyl]amino} (phenyl)ethanoic acid]", "values": [{"measurement": "FPR2 (efficacy)", "result": "nM (1.0)"}]}
{"smiles": "NC(=O)C1C(C(=O)Nc2ccc(Br)cc2)C2C=CC1C21CC1", "note": "(stereo not drawn) [Compound 26, N-(4-bromophenyl) spiro[bicyclo[2.2.1]heptane-7,1′-cyclopropane]-5-ene-2,3-dicarboxamide]", "values": [{"measurement": "FPR2 (efficacy)", "result": "nM (0.91)"}]}
{"smiles": "O=C(O)C1C(C(=O)Nc2ccc(Br)cc2)C2C=CC1C21CC1", "note": "(stereo not drawn) [Compound 12, 3-[(4-bromophenyl)carbamoyl] spiro[bicyclo[2.2.1]heptane-7,1′-cyclopropane]-5-ene-2-carboxylic acid]", "values": [{"measurement": "EC50", "result": 4, "unit": "nM"}, {"measurement": "FPR2 (efficacy)", "result": "nM (0.97)"}]}
{"smiles": "CCC1(CCc2ccccc2C(=O)OC)NC(=O)N(NC(=O)Nc2ccc(Br)cc2)C1=O", "note": "(stereo not drawn) [Compound 141, methyl 2-[2-(1-{[(4-bromophenyl)carbamoyl]amino}-4-ethyl-2,5-dioxoimidazolidin-4-yl)ethyl]benzoate]", "values": [{"measurement": "EC50", "result": 10.3, "unit": "nM"}, {"measurement": "FPR2 (efficacy)", "result": "nM (0.92)"}]}
{"smiles": "CC(C)C[C@H](NC(=O)Nc1ccc(Br)cc1)C(=O)N[C@H](C(=O)O)C(C)C", "note": "[Compound 91, (2S)-2-{[(2S)-2-{[(4-bromophenyl)carbamoyl]amino}-4-methylpentanoyl]amino}-3-methylbutanoic acid]", "values": [{"measurement": "EC50", "result": 1.7, "unit": "nM"}, {"measurement": "FPR2 (efficacy)", "result": "nM (0.97)"}]}
{"smiles": "CCNC(=O)C1C(C(=O)Nc2ccc(Br)cc2)C2CCC1C21CC1", "note": "(stereo not drawn) [Compound 47, N-(4-bromophenyl)-N′-ethylspiro[bicyclo[2.2.1]heptane-7,1′-cyclopropane]-2,3-dicarboxamide]", "values": [{"measurement": "EC50", "result": 9.3, "unit": "nM"}, {"measurement": "FPR2 (efficacy)", "result": "nM (1.0)"}]}
{"smiles": "CC(C)C[C@H](NC(=O)Nc1ccc(Br)cc1)C(=O)NCC(=O)N(C)C", "note": "[Compound 120, (2S)-2-{[(4-bromophenyl)carbamoyl]amino}-N-[2-(dimethylamino)-2-oxoethyl]-4-methylpentanamide]", "values": [{"measurement": "EC50", "result": 1.7, "unit": "nM"}, {"measurement": "FPR2 (efficacy)", "result": "nM (0.99)"}]}
{"smiles": "CCC1(C(C)C)NC(=O)N(NC(=O)Nc2ccc(Br)cc2)C1=O", "note": "(stereo not drawn) [Compound 4, 1-(4-bromophenyl)-3-[4-ethyl-2,5-dioxo-4-(propan-2-yl)imidazolidin-1-yl]urea]", "values": [{"measurement": "FPR2 (efficacy)", "result": "(0.90)"}]}
{"smiles": "O=C(Nc1ccc(Br)cc1)NN1C(=O)NC2(CCCCC2)C1=O", "note": "[Compound 52, 1-(4-bromophenyl)-3-(2,4-dioxo-1,3-diazaspiro[4.5]dec-3-yl)urea]", "values": [{"measurement": "EC50", "result": 15.1, "unit": "nM"}, {"measurement": "FPR2 (efficacy)", "result": "nM (1.0)"}]}
{"smiles": "CC(C)C[C@H](NC(=O)Nc1ccc(Br)cc1F)C(=O)N[C@@H](C)C(=O)O", "note": "[Compound 87, (2S)-2-{[(2S)-2-{[(4-bromo-2-fluorophenyl)carbamoyl]amino}-4-methylpentanoyl]amino} propanoic acid]", "values": [{"measurement": "EC50", "result": 12.1, "unit": "nM"}, {"measurement": "FPR2 (efficacy)", "result": "nM (0.95)"}]}
{"smiles": "CCC[C@H](NC(=O)Nc1ccc(Br)cc1)C(=O)NCC(=O)OC", "note": "[Compound 72, methyl{[(2S)-2-{[(4-bromophenyl)carbamoyl]amino}pentanoyl]amino}acetate]", "values": [{"measurement": "EC50", "result": 16.4, "unit": "nM"}, {"measurement": "FPR2 (efficacy)", "result": "nM (0.86)"}]}
{"smiles": "CC1(CCc2cccc(O)c2)NC(=O)N(NC(=O)Nc2ccc(Br)cc2)C1=O", "note": "(stereo not drawn) [Compound 108, 1-(4-bromophenyl)-3-{4-[2-(3-hydroxyphenyl)ethyl]-4-methyl-2,5-dioxoimidazolidin-1-yl}urea]", "values": [{"measurement": "EC50", "result": 2.1, "unit": "nM"}, {"measurement": "FPR2 (efficacy)", "result": "nM (1.0)"}]}
{"smiles": "CNC(=O)C1C(C(=O)Nc2ccc(Br)cc2)C2CCC1C21CC1", "note": "(stereo not drawn) [Compound 46, N-(4-bromophenyl)-N′-methylspiro[bicyclo[2.2.1]heptane-7,1′-cyclopropane]-2,3-dicarboxamide]", "values": [{"measurement": "EC50", "result": 8.5, "unit": "nM"}, {"measurement": "FPR2 (efficacy)", "result": "nM (1.0)"}]}
{"smiles": "CC[C@H](C)[C@H](NC(=O)Nc1ccc(Br)cc1F)C(=O)NCC(=O)O", "note": "[Compound 59, {[(2S,3S)-2-{[(4-bromo-2-fluorophenyl)carbamoyl]amino}-3-methylpentanoyl]amino}acetic acid]", "values": [{"measurement": "FPR2 (efficacy)", "result": "nM (0.95)"}]}
{"smiles": "CC(C)C1(CC(=O)NC(CO)CO)NC(=O)N(NC(=O)Nc2ccc(Br)cc2)C1=O", "note": "(stereo not drawn) [Compound 142, 2-[1-{[(4-bromophenyl)carbamoyl]amino}-2,5-dioxo-4-(propan-2-yl)imidazolidin-4-yl]-N-(1,3-dihydroxypropan-2-yl)acetamide]", "values": [{"measurement": "EC50", "result": 13.8, "unit": "nM"}, {"measurement": "FPR2 (efficacy)", "result": "nM (0.92)"}]}
{"smiles": "O=C(Nc1ccc(Br)cc1)N[C@@H](Cc1ccccc1)C(=O)NCCO", "note": "[Compound 58, (2S)-2-{[(4-bromophenyl)carbamoyl]amino}-N-(2-hydroxyethyl)-3-phenylpropanamide]", "values": [{"measurement": "EC50", "result": 7, "unit": "nM"}, {"measurement": "FPR2 (efficacy)", "result": "nM (0.86)"}]}
{"smiles": "CC(=O)CNC(=O)[C@H](Cc1ccccc1)NC(=O)Nc1ccc(Br)cc1F", "note": "[Compound 68, (2S)-2-{[(4-bromo-2-fluorophenyl)carbamoyl]amino}-N-(2-oxopropyl)-3-phenylpropanamide]", "values": [{"measurement": "EC50", "result": 12.4, "unit": "nM"}, {"measurement": "FPR2 (efficacy)", "result": "nM (0.94)"}]}
{"smiles": "CCC(CC)(NC(=O)Nc1ccc(Br)cc1)C(=O)NCC(=O)O", "note": "[Compound 113]", "values": [{"measurement": "EC50", "result": 18.7, "unit": "nM"}, {"measurement": "FPR2 (efficacy)", "result": "nM (1.0)"}]}
{"smiles": "CCOP(=O)(CNC(=O)[C@H](CC(C)C)NC(=O)Nc1ccc(C(F)(F)F)cc1)OCC", "note": "[Compound 134, diethyl ({[(2S)-4-methyl-2-({[4-(trifluoromethyl)phenyl]carbamoyl}amino)pentanoyl]amino}methyl)phosphonate]", "values": [{"measurement": "EC50", "result": 5.5, "unit": "nM"}, {"measurement": "FPR2 (efficacy)", "result": "nM (0.97)"}]}
{"smiles": "CCC1(CC)NC(=O)N(NC(=O)Nc2ccc(Br)cc2F)C1=O", "note": "[Compound 50, 1-(4-bromo-2-fluorophenyl)-3-(4,4-diethyl-2,5-dioxoimidazolidin-1-yl)urea]", "values": [{"measurement": "EC50", "result": 15.7, "unit": "nM"}, {"measurement": "FPR2 (efficacy)", "result": "nM (1.0)"}]}
{"smiles": "CC(C)C[C@H](NC(=O)Nc1ccc(Br)cc1)C(=O)NCS(=O)(=O)O", "note": "[Compound 127, {[(2S)-2-{[(4-bromophenyl)carbamoyl]amino}-4-methylpentanoyl]amino} methanesulfonic acid]", "values": [{"measurement": "EC50", "result": 2, "unit": "nM"}, {"measurement": "FPR2 (efficacy)", "result": "nM (0.91)"}]}
